Format in all cases: physicochemical
Series [1] can be described thus: Tablet hardness (Schuleuniger-4M tablet hardness tester). As to conditions: denture cleanser tablet (Table 1 formula, citric acid), additive 0.6%. How it is done: Tablets were compressed using ⅞″ round tooling on a Stokes F press. Compression force was adjusted to give the hardest possible tablet (limit set by capability of the press or by the appearance of tablet capping).
Hardness was measured using a Schuleuniger-4M tablet hardness tester.
Three (3) gram tablets were compressed using ⅞″ round tooling on a Stokes F press. Compression force was adjusted to give the hardest possible tablet (limit set by capability of the press or by appearance of tablet capping).
3.3 gram tablets were compressed using ⅞″ round tooling on a Stokes F press. As above, compression force was adjusted to give the hardest possible tablet (limit set by capability of the press or by appearance of tablet capping).
2.5 gram tablets were compressed using ⅞″ round tooling on a Stokes F press. As above, compression force was adjusted to give the hardest possible tablet (limit set by capability of the press or by appearance of tablet capping).

Series [2] in a line: Tablet friability, modified USP-NF <1216> (Erweka TA, 10 tablets, 25 rpm; % unbroken tablets). How it is done: Friability was measured in a manner similar to that described in the USP-NF, Chapter <1216>. The USP-NF method was modified in that the number of tablet used and the method of calculation were changed as indicated here. Ten (10) tablets were placed in an Erweka TA friability apparatus. The tablets were tumbled at 25 rpm for the indicated number of minutes. The percentage of unbroken tablets is reported.

Series [3] can be described thus: Solubility in water of the tested materials. To be noted: neat material. The text has this: In an attempt to understand what chemical properties of the tested materials are critical to improving friability, we looked at some of the physical properties of the tested materials.

As to `OCC(O)CO` [Glycerin], in series [1], the Hardness is recorded as 9.5 kp. Further, in series [2] (denture cleanser tablet (Table 1 formula, citric acid), additive 0.6%, tumbled 2 min), the “Friability (% whole tablets) 2 min” value amounted to 100 % whole tablets. For the same compound, the “Friability (% whole tablets) 4 min” value in series [2] (denture cleanser tablet (Table 1 formula, citric acid), additive 0.6%, tumbled 4 min) was 100 % whole tablets. Further, the “Friability (% whole tablets) 6 min” value in series [2] (denture cleanser tablet (Table 1 formula, citric acid), additive 0.6%, tumbled 6 min) was 100 % whole tablets. For the same compound, in series [2] (denture cleanser tablet (Table 1 formula, citric acid), additive 0.6%, tumbled 8 min), the “Friability (% whole tablets) 8 min” value was determined as 100 % whole tablets. Also, the “Friability (% whole tablets) 10 min” value in series [2] (denture cleanser tablet (Table 1 formula, citric acid), additive 0.6%, tumbled 10 min) came to 100 % whole tablets. Moreover, the Friability improvement entry in series [2] (summary for denture cleanser tablet (Table 1 formula), material at 0.6%) is recorded as “Yes”. Also, the “Solubility in Water (w/w %)” value in series [3] came out at 100% w/w %.

The values above are taken from US11058642B2, “Tablets with improved friability” (TOWER LABORATORIES LTD, priority 2013, dated 2021).
